Results as given in article PMC5578090, “Biological Evaluation of Uridine Derivatives of 2-Deoxy Sugars as Potential Antiviral Compounds against Influenza A Virus” (International Journal of Molecular Sciences, 2017).
“Also recorded” adds a separate entry of the source. Like-named read-outs stand apart in the source and are kept apart here.

What was measured:
[1] = in vitro; conditions: dog
[2] = system: influenza virus A/ostrich/Denmark/725/96 (H5N2); assay: microbe, parasite or virus in culture; assay type: cell-based; conditions: for IC50: H5N2, MDCK
[3] = system: MDCK cells
[4] = system: influenza virus; conditions: previously reported; read-out: IC50, anti-influenza virus activity in vitro; cited from earlier work
[5] = system: influenza virus A/ostrich/Denmark/725/96 (H5N2); assay type: cell-based
[6] = system: influenza virus A/ostrich/Denmark/725/96 (H5N2); assay type: cell-based; remark: listed apart in the source
[7] = system: HA protein of pandemic human influenza A/H1N1 virus; assay type: cell-based
[8] = 72 h, read-out: IC50 (compound concentration required to inhibit virus plaque production by 50%)
[9] = read-out: p[IC50] = −log[IC50] (converted)

Compound | CC50 [1] [µM] | IC50 [2, 8] [µM] | SI (selectivity index, ratio of CC50 to IC50) [2] | IC50 [2, 9] [µM] | Cytotoxicity (in words) [3] | IC50 [4] [µM] | Reduction of virus-induced cytopathic effect (antiviral activity) [5] | Inhibition of virus propagation depending on time of addition [6] | Mature form of HA protein [7] | Yield of HA protein in infected cells [7] | Average size and plaque number [2]
CCC(CC)O[C@@H]1C=C(C(=O)O)C[C@H](N)[C@H]1NC(C)=O [Oseltamivir carboxylate, reference compound] | > 100 | ~0.15 | – | – | – | – | – | – | – | – | –
CC(=O)O[C@H]1[C@H](C)O[C@H](OC[C@H]2O[C@@H](n3ccc(=O)[nH]c3=O)[C@@H]3OC(C)(C)O[C@@H]32)C[C@@H]1O[Si](C)(C)C(C)(C)C [Compound 1] | 193 | 175 ± 8.22 | 1.10 | 174 | – | – | – | – | – | – | –
CC1(C)O[C@@H]2[C@H](O1)[C@@H](CO[C@@H]1C[C@@H](O)[C@H](O)[C@@H](CO)O1)O[C@H]2n1ccc(=O)n(Cc2ccccc2)c1=O [Compound 8] | 669 | 346 ± 10.5 | 1.93 | 347 | low | – | – | – | – | – | –
CC1(C)O[C@@H]2[C@H](O1)[C@@H](CO[C@@H]1C[C@@H](OCc3ccccc3)[C@H](OCc3ccccc3)[C@@H](CO)O1)O[C@H]2n1ccc(=O)n(C(=O)c2ccccc2)c1=O [IW7, reference compound] | 123 | 63 ± 4.17 | 1.95 | – | – | 63 | – | – | – | – | –
CC(=O)OC[C@H]1OC(OC[C@H]2O[C@@H](n3ccc(=O)[nH]c3=O)[C@@H]3OC(C)(C)O[C@@H]32)C[C@@H](OC(C)=O)[C@@H]1OC(C)=O (some centres unmarked) [Compound 6] | 620 | 575 ± 17.2 | 1.08 | 575 | – | – | – | – | – | – | –
CC1(C)O[C@@H]2[C@H](O1)[C@@H](CO[C@@H]1C[C@@H](O)[C@H](O)[C@@H](CO)O1)O[C@H]2n1ccc(=O)[nH]c1=O [Compound 7] | 828 | 721 ± 23.2 | 1.15 | 724 | low | – | – | – | – | – | –
O=c1ccn([C@@H]2O[C@H](CO[C@@H]3C[C@@H](O)[C@H](O)[C@@H](CO)O3)[C@@H](O)[C@H]2O)c(=O)[nH]1 [Compound 9] | 800 | 410 ± 11.2 | 1.95 | 407 | low | – | – | – | – | – | –
CC1(C)O[C@@H]2[C@H](O1)[C@@H](CO[C@@H]1C[C@@H](OCc3ccccc3)[C@H](OCc3ccccc3)[C@@H](COCc3ccccc3)O1)O[C@H]2n1ccc(=O)n(C(=O)c2ccccc2)c1=O [Compound 4] | 480 | 99 ± 5.23 | 4.85 | 100 | – | – | significantly reduced the CPE | – | – | – | –
CC1(C)O[C@@H]2[C@H](O1)[C@@H](CO[C@@H]1C[C@@H](OCc3ccccc3)[C@H](OCc3ccccc3)[C@@H](CO[Si](C)(C)C(C)(C)C)O1)O[C@H]2n1ccc(=O)n(C(=O)c2ccccc2)c1=O [IW3, reference compound] | 640 | 72 ± 5.2 | 8.89 | – | – | 72 | – | – | – | – | –
CC1(C)O[C@@H]2[C@H](O1)[C@@H](CO[C@@H]1C[C@@H](OCc3ccccc3)[C@H](OCc3ccccc3)[C@@H](COCc3ccccc3)O1)O[C@H]2n1ccc(=O)[nH]c1=O [Compound 3] | 407 | 100 ± 9.84 | 4.07 | 100 | – | – | significantly reduced the CPE | – | – | – | –
CC(=O)O[C@H]1[C@H](C)O[C@H](OC[C@H]2O[C@@H](n3ccc(=O)n(C(=O)c4ccccc4)c3=O)[C@@H]3OC(C)(C)O[C@@H]32)C[C@@H]1O[Si](C)(C)C(C)(C)C [Compound 2] | 432 | 82 ± 6.81 | 5.27 | 81.3 | – | – | significantly reduced the CPE | inhibited the propagation of influenza virus only when it is added to the cells after viral infection | not detected | reduced the formation of HA glycoprotein in a dose-dependent manner; also recorded: reduced by compound 2 in a dose-dependent manner; also recorded: dose-dependent decrease of HA glycoprotein production | markedly reduced in a dose-dependent manner
CC1(C)O[C@@H]2[C@H](O1)[C@@H](CO[C@@H]1C[C@@H](OCc3ccccc3)[C@H](OCc3ccccc3)[C@@H](CO[Si](C)(C)C(C)(C)C)O1)O[C@H]2n1ccc(=O)[nH]c1=O [Compound 5] | 150 | 96 ± 7.64 | 1.56 | 97.7 | – | – | – | – | – | – | –
